From US8815934B2, “2-Phenyl-1-[4-(2-Aminoethoxy)-Benzyl]-Indole and estrogen formulations” (Wyeth LLC, priority 1998, dated 2014) come the findings set out here.

The test system of the experiment is Female Sprague Dawley CD rats, ovx. Briefly: 6-week ovariectomized rat model. The experiment is classed as in vivo. The settings on record: 2 μg/rat s.c. daily, mean ± SEM. An excerpt:
Female Sprague Dawley CD rats, ovx or sham ovx, were obtained 1 day after surgery from Taconic Farm (weight range 240-275 g). They were housed 3 or 4 rats/cage in a room on a 14/10 (light/dark) schedule and provided with food (Purina 500 rat chow) and water ad libitum. Treatment for all studies began 1 day after the animals arrival and dosed 5 or 7 days per week as indicated for 6 weeks. A group of age matched sham operated rats not receiving any treatment served as an intact, estrogen replete control group for each study. All treatments were prepared in 1% […] in normal saline at defined concentrations so that the treatment volume was 0.1 mL/100 g body weight. 17-beta estradiol was dissolved in corn oil (20 uG/mL) and delivered subcutaneously; 0.1 mL/rat. All dosages were adjusted at three week intervals according to group mean body weight measurements.
Five weeks after the initiation of treatment and one week prior to the termination of the study, each rat was evaluated for bone mineral density (BMD). The BMD's of the proximal tibiae (PT) and fourth lumbar vertabrae (L4) were measured in anesthetized, rats using a dual energy X-ray absorptiometer (Eclipse XR-26, Norland Corp. Ft. Atkins, Wis.). […] Total choleserol is determined using a Boehringer-Mannheim Hitachi 911 clinical analyzer using the Cholesterol/HP kit. […]

`C[C@]12CC[C@@H]3c4ccc(O)cc4CC[C@H]3[C@@H]1CC[C@@H]2O` [17β-estradiol]: the “BMD L4” value (following 5 weeks of treatment) is on record as 0.169 ± 0.004 mg/cm^2. Where the note is “following 6 weeks of treatment”, this compound registered a Cholesterol of 95.5 ± 3.9 mg/dL.
